In patent publication US20240368153A1, “Aminopyridine-based MTA-Cooperative PRMT5 Inhibitors” (Mirati Therapeutics, Inc., priority 2021, published 2024):

Legend:
[1] = biological target: recombinant human dual expressed Avi PRMT5/His-MEP50 protein (Homo sapiens (Human), UniProt O14744); experiment: HTRF binding assay in presence of MTA; conditions: 30 μM MTA
Summary of the method: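 HTRF tracer-displacement binding using human Avi-PRMT5 (2-637)/His-MEP50 (2-342), baculovirus-expressed, with 30 μM MTA and 5 nM in-house tracer in 25 mM ADA pH 7.2, 1 mM TCEP, 50 mM NaCl, 0.002% Tween. Overnight at 2-8° C, then 0.5 nM anti-His-Tb 1 hr RT; 665/620 ratio ×10000.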

[2] = biological target: PRMT5•MTA (biotinylated PRMT5-MEP50) (Homo sapiens (Human), UniProt O14744); experiment: SPR binding assay, MTA running buffer; conditions: 20 μM MTA running buffer
Chain of PRMT5•MTA (biotinylated PRMT5-MEP50) (O14744 whole entry, the tested form may be a part): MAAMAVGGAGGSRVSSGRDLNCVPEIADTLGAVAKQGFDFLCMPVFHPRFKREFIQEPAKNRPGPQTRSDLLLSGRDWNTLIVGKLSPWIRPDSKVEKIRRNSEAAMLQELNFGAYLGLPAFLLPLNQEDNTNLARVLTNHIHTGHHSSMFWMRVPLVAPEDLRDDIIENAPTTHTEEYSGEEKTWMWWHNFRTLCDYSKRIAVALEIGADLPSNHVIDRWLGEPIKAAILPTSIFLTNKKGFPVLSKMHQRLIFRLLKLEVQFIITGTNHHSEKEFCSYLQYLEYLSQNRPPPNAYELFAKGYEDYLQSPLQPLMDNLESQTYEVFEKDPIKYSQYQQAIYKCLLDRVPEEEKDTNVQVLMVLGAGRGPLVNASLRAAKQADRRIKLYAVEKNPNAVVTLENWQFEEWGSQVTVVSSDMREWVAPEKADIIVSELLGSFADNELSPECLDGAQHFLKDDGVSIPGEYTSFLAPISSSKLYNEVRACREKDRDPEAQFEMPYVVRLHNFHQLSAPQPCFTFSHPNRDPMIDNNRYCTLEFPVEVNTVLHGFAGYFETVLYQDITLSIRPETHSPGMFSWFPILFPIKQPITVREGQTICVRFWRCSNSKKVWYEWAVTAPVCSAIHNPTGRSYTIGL
Chain of PRMT5•MTA (biotinylated PRMT5-MEP50) (Q9BQA1 whole entry partner, the tested form may be a part): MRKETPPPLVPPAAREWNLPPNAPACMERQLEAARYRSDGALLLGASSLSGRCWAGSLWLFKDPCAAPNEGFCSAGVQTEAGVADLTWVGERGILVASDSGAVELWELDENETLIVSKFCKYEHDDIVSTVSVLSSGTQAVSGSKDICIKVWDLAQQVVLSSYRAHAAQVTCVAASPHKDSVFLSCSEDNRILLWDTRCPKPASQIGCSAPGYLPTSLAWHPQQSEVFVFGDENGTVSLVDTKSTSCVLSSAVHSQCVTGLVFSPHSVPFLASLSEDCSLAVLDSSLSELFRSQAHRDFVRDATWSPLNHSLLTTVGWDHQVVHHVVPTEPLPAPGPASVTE
Procedure: (§1) SPR screening was performed in MTA running buffer (25 mM Bicine pH 7.6, 100 mM NaCl, 1 mM TCEP, 20 μM MTA, 0.05% Tween-20 and 2% DMSO). The biotinylated PRMT5-MEP50 surface was equilibrated with MTA running buffer for 12 hours prior to the start. […] Subsequently, compound titration was repeated in SAM-running buffer (25 mM Bicine pH 7.6, 100 mM NaCl, 1 mM TCEP, 20 μM SAM, 0.05% Tween-20, and 2% DMSO). […] After double referencing, the steady-state response was extracted for each fragment concentration and was fit to the Langmuir isotherm equation to determine the equilibrium dissociation constant (KD).

[3] = biological target: PRMT5•SAM (biotinylated PRMT5-MEP50) (Homo sapiens (Human), UniProt O14744); experiment: SPR binding assay, SAM running buffer; conditions: 20 μM SAM running buffer
Chain of PRMT5•SAM (biotinylated PRMT5-MEP50) (O14744 whole entry): as the sequence (O14744 whole entry, the tested form may be a part) above
Chain of PRMT5•SAM (biotinylated PRMT5-MEP50) (Q9BQA1 whole entry partner): as the sequence (Q9BQA1 whole entry partner, the tested form may be a part) above
Procedure: as §1

PRMT5/MEP50 complex [4] = biological target: T1, PRMT5/MEP50 complex (Homo sapiens (Human), UniProt O14744); experiment: PRMT5:MEP50 FlashPlate Assay; format: biochemical
T1 sequence (O14744 whole entry): as the sequence (O14744 whole entry, the tested form may be a part) above
T1 sequence (Q9BQA1 whole entry partner): as the sequence (Q9BQA1 whole entry partner, the tested form may be a part) above
Summary of the method: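 3 nM human PRMT5/MEP50 pre-incubated 20 min at room temperature with compound and 40 nM biotinylated histone H4(1-15) peptide; reaction started with 1 μM ³H-SAM, run 20 min. Bound tritiated peptide counted by scintillation; IC50 from 10-point curves (top 50 μM) with and without MTA.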

PRMT5/MEP50 complex [5] = biological target: T1, PRMT5/MEP50 complex; experiment: PRMT5:MEP50 HotSpot Assay; format: biochemical; conditions: read-out: IC50 + 2 μM MTA, full-length histone H2A, presence of 2 μM MTA
Procedure: The assay uses recombinant full-length histone H2A as the PRMT5 substrate. Enzymatic transfer of the tritiated methyl group from S-adenosyl-L-[methyl-3H]methionine to the histone H2A protein generated a radiolabeled histone […] in a scintillation counter to determine the activity of PRMT5 enzyme in the presence and absence of compound. […] Briefly, compounds of the present invention were solubilized in 100% DMSO at a highest concentration of 10 mM. […] Control samples lacking compound, PRMT5/MEP50 complex or various reaction components also were prepared and processed in parallel with compound test samples. SAH was used as a positive control for assay validation. To measure PRMT5 inhibitory activity. 1 nM PRMT5/MEP50 complex (Reaction Biology Corporation) was preincubated with test compound in assay buffer containing 5 μM full-length histone H2A for 20 min at room temperature. The enzymatic reaction was initiated by adding 1 μM tritiated S-adenosyl methionine (final concentration) and the reaction was allowed to proceed for 60 min. The reaction was stopped and transferred to filter paper for detection. The amount of tritiated H2A in each sample was determined using a scintillation counter.

[6] = histone H4 peptide, absence of MTA, read-out: IC50
[7] = read-out: IC50 + 2 μM MTA, histone H4 peptide, presence of 2 μM MTA

Chain of recombinant human dual expressed Avi PRMT5/His-MEP50 protein (O14744 2-637): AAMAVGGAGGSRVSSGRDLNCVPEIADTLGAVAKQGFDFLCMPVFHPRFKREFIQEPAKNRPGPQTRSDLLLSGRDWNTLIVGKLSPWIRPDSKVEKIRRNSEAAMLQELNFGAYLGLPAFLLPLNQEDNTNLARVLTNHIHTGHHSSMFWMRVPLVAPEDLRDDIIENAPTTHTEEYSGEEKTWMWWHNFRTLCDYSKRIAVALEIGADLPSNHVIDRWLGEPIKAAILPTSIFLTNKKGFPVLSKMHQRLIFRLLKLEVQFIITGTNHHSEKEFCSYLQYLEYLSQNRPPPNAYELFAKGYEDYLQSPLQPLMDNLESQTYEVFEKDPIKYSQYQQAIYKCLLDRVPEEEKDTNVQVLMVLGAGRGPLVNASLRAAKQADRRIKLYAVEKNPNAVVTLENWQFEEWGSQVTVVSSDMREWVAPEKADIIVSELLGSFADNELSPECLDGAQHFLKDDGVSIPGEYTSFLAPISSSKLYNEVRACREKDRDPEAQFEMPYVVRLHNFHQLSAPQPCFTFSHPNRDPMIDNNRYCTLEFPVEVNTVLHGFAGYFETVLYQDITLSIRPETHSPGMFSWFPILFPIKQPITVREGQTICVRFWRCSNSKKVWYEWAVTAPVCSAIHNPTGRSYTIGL
Chain of recombinant human dual expressed Avi PRMT5/His-MEP50 protein (Q9BQA1 2-342 partner): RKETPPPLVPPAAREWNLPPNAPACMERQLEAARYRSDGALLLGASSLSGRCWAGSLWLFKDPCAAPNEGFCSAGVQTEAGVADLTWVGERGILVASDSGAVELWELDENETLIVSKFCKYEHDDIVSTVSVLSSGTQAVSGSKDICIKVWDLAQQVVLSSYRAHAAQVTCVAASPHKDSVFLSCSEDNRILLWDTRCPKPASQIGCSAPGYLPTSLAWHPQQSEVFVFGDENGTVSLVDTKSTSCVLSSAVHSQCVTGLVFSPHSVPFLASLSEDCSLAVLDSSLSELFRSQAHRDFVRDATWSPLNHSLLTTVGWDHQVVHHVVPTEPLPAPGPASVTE

SMILES	IC50 [1] [nM]	Kd [2] [nM]	Kd [3] [nM]	IC50 (PRMT5/MEP50 complex [4]; [6]) [nM]	IC50 (PRMT5/MEP50 complex [4]; [7]) [nM]	IC50 (PRMT5/MEP50 complex [5]) [nM]
Cc1cc2[nH]c(CN3C(=O)c4ccccc4C3=O)cc2nc1N [Example 14-1, 2-((5-amino-6-methyl-1H-pyrrolo[3,2-b]pyridin-2-yl)methyl)isoindoline-1,3-dione]	7	1	6	10100	12.1	626
CC(=O)N(Cc1cnc2c(C)cc(N)nc2c1)c1ccc2ccccc2c1C#N [Example 7-5, N-[(6-amino-8-methyl-1,5-naphthyridin-3-yl)methyl]-N-(1-cyano-2-naphthyl)acetamide]	3	2	2	6460	20.3	1340
CC(=O)N(Cc1cc2nc(N)c(C)cc2[nH]1)c1ccc2ccccc2c1C#N [Example 14-2, N-[(5-amino-6-methyl-1H-pyrrolo[3,2-b]pyridin-2-yl)methyl]-N—(I-cyano-2-naphthyl)acetamide]	2	1	1	798	1.72	553
